Source: patent US11311498B2, “Use of cannabinoids in the treatment of epilepsy” (GW Pharma Limited, priority 2014, dated 2022)

Tests used:
seizures [1] = settings: Consroe et al., 1977; cited from earlier work
[2] = system: myoclonic absence seizures; experiment: Expanded access program: myoclonic absence seizures in children and young adults with treatment-resistant epilepsy; assay type: in vivo, human; settings: 12 weeks of treatment vs 4-week baseline; head n = 10; CBD 5 up to 25 mg/kg/day added to baseline AED
Procedure: (§1) The terms “50% responder” and “50% reduction in seizure” are both terms used in clinical studies. In the present application the terms define the percentage of subjects that experienced a greater than or equal to 50% reduction in the number of seizures during treatment with CBD in comparison to the number experienced during the baseline period before the CBD was administered.
(§2) Of 137 children and young adults with severe, childhood onset treatment-resistant epilepsy (TRE), ten suffered from epilepsy that was characterised by myoclonic absence seizures. These subjects were tested with a highly purified extract of cannabidiol (CBD) obtained from a cannabis plant. All subjects presented with myoclonic absence type seizures, often in addition to other generalised and/or focal seizures. The participants in the study were part of an expanded access compassionate use program for CBD.
The epileptic syndromes that these patients suffered from were as follows: Myoclonic Absence Epilepsy; Doose Syndrome; and epilepsy of unknown cause.
(§3) All patients entered a baseline period of 4 weeks when parents/caregivers kept prospective seizure diaries, noting all countable seizure types.
The patients then received a highly purified CBD extract (greater than 98% CBD w/w) in sesame oil, of known and constant composition, at a dose of 5 mg/kg/day in addition to their baseline anti-epileptic drug (AED) regimen. […]

seizures [3] = settings: previous studies in animals; multiple species and models; cited from earlier work
total seizures = experiment: Expanded access program: total seizures in all subjects treated; assay type: in vivo, human; settings: 12 weeks of treatment, n = 137
Procedure: as §1
as §2, with “(TRE), forty-two” for “(TRE), ten”, “by” for “by myoclonic”, “with” for “with myoclonic”
as §3
The patients then received a highly purified CBD extract (greater than 98% CBD w/w) in sesame oil, of known and constant composition, at a dose of 5 mg/kg/day in addition to their baseline anti-epileptic drug (AED) regimen.
Laboratory testing for hematologic, liver, kidney function, and concomitant AED levels was performed at baseline, and after every 4 weeks of CBD therapy.

seizures in mice = settings: after pro-convulsant drugs or an electric current; cited from earlier work
seizures [4] = settings: of eight adult patients with generalized epilepsy; cited from earlier work
absence seizures = experiment: Expanded access program: absence seizures in children and young adults with treatment-resistant epilepsy; assay type: in vivo, human; settings: 12 weeks of treatment vs 4-week baseline; n = 28; CBD 5 up to 25 mg/kg/day added to baseline AED
Procedure: as §1
as §2, with “(TRE), forty-two” for “(TRE), ten”, “by” for “by myoclonic”, “with” for “with myoclonic”
The epileptic syndromes that these patients suffered from were as follows: Lennox-Gastaut Syndrome; Myoclonic Absence Epilepsy; Tuberous Sclerosis Complex; Dravet Syndrome; Doose Syndrome; Jeavons Syndrome; CDKL5; Dup15q; Neuronal ceroid lipofuscinoses (NCL) and brain abnormalities. […]

[5] = Solubility of the drug substance in water; assay type: physicochemical
Source text: Sesame oil was selected as an excipient to solubilize the drug substance.

seizures [6] = settings: 200 mg/day pure CBD, cited from earlier work
seizures [7] = settings: twelve institutionalized adult patients; 200 mg/day pure CBD; open label; cited from earlier work

## CCCCCc1cc(O)c2c(c1)OC(C)(C)[C@@H]1CCC(C)=C[C@@H]21 [THC, Tetrahydrocannabinol]
Seizures [1]
  effect on convulsions: pro-convulsant

## C=C(C)[C@@H]1CCC(C)=C[C@H]1c1c(O)cc(CCCCC)cc1O [CBD, Cannabidiol]
[2]
  <50% reduction in seizures, myoclonic absence seizures (proportion of patients): 25% (n = 2)
Seizures [3]
  anticonvulsant efficacy: has anticonvulsant efficacy in multiple species and models
Total seizures
  <50% reduction in seizures, total seizures (proportion of patients): 54% (n = 74)
Seizures in mice
  prevention of seizures: able to prevent seizures
Seizures [4]
  patients with marked reduction of seizures: 4
Absence seizures
  <50% reduction in seizures, absence seizures (proportion of patients): 36% (n = 10)
[5]
  solubility in water: insoluble in water
Seizures [6]; of four adult patients
  patients who became seizure free: two
Seizures [6]; remaining two of four adult patients
  seizure frequency in the remainder of patients: unchanged
Seizures [7]
  control of seizures: ineffective in controlling seizures
